From ChEMBL document CHEMBL5247641, “Discovery of Potent DYRK2 Inhibitors with High Selectivity, Great Solubility, and Excellent Safety Properties for the Treatment of Prostate Cancer” (J Med Chem, 2023)
Activity calls are given as the source filed them. The calls are words filed in the database; no cut-off is given here.

Experiments:
[1] = system: DU-145; assay: Antiproliferative activity against human DU-145 cells assessed as inhibition of clone formation at 1 to 8 uM incubated for 2 weeks by crystal violet staining based assay; format: functional, cell-based; settings: dose 1-8 µM
[2] = system: DU-145; assay: Antimigratory activity against human DU-145 cells assessed as inhibition of cell migration at 1 to 8 uM incubated for 24 hrs by transwell migration assay; format: functional, cell-based; settings: dose 1-8 µM
[3] = system: CWR22R; assay: Antimigratory activity against human 22Rv1 cells assessed as inhibition of cell migration at 1 to 8 uM incubated for 24 hrs by transwell migration assay; format: functional, cell-based; settings: dose 1-8 µM
[4] = system: DU-145; assay: Induction of cell cycle arrest in human DU-145 cells assessed as accumulation of cells at G1 phase at 2 uM incubated for 24 hrs by propidium iodide based flow cytometric analysis (Rvb= 53.46%); format: functional
[5] = system: DU-145; assay: Induction of cell cycle arrest in human DU-145 cells assessed as accumulation of cells at S phase at 1 uM incubated for 24 hrs by propidium iodide based flow cytometric analysis (Rvb= 29.02%); format: functional
[6] = system: CWR22R; assay: Induction of cell cycle arrest in human 22Rv1 cells assessed as accumulation of cells at G1 phase at 1 uM incubated for 24 hrs by propidium iodide based flow cytometric analysis (Rvb= 55.28%); format: functional
[7] = system: CWR22R; assay: Induction of cell cycle arrest in human 22Rv1 cells assessed as accumulation of cells at S phase at 1 uM incubated for 24 hrs by propidium iodide based flow cytometric analysis (Rvb=20.51 %); format: functional
[8] = system: CWR22R; assay: Induction of cell cycle arrest in human 22Rv1 cells assessed as accumulation of cells at S phase at 4 uM incubated for 24 hrs by propidium iodide based flow cytometric analysis (Rvb=20.51 %); format: functional
[9] = system: CWR22R; assay: Induction of cell cycle arrest in human 22Rv1 cells assessed as accumulation of cells at G2 phase at 4 uM incubated for 24 hrs by propidium iodide based flow cytometric analysis (Rvb=24.21 %); format: functional
[10] = system: DU-145; assay: Induction of apoptosis in human DU-145 cells assessed as apoptotis rate at 4 uM incubated for 24 hrs by Annexin V-FITC and PI staining based flow cytometry (Rvb= 4.36%); format: functional
[11] = system: CWR22R; assay: Induction of apoptosis in human 22Rv1 cells assessed as apoptotis rate at 8 uM incubated for 24 hrs by Annexin V-FITC and PI staining based flow cytometry (Rvb= 3.08%); format: functional
[12] = system: CWR22R; assay: Induction of apoptosis in human 22Rv1 cells assessed as increase in cleaved PARP level at 2 to 8 uM incubated for 24 hrs by Western blot analysis; format: functional, cell-based; settings: dose 2-8 µM
[13] = biological target: T1, Dual specificity tyrosine-phosphorylation-regulated kinase 2 (Homo sapiens) (UniProt Q92630); assay: Inhibition of DYRK2 in human DU-145 cells assessed as reduction in 4E-BP1 phosphorylation at 2 to 8 uM incubated for 24 hrs by Western blot analysis; format: cell-based; settings: dose 2-8 µM
T1 sequence (whole entry): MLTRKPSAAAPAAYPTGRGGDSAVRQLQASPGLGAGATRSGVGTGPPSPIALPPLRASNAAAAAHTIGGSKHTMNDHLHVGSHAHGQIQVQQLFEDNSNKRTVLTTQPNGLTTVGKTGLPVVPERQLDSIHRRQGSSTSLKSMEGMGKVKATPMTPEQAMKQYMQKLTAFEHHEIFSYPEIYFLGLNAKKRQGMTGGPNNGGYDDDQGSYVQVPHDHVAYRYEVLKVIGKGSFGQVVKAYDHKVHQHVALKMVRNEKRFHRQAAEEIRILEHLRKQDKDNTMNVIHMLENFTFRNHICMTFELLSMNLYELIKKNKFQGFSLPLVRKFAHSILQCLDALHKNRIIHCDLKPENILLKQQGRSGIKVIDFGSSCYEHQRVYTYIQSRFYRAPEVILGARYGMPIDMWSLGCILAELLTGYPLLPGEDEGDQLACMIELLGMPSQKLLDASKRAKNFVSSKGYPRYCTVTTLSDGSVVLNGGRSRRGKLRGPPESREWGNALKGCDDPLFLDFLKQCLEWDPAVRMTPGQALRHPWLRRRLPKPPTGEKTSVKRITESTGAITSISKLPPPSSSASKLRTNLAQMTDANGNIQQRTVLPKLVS

[14] = biological target: T1, Dual specificity tyrosine-phosphorylation-regulated kinase 2 (Homo sapiens); assay: Inhibition of DYRK2 in human 22Rv1 cells assessed as reduction in 4E-BP1 phosphorylation at 2 to 8 uM incubated for 24 hrs by Western blot analysis; format: cell-based; settings: dose 2-8 µM
[15] = system: DU-145; assay: Antiproliferative activity against human DU-145 cells assessed as reduction in c-Myc expression level at 2 to 8 uM incubated for 24 hrs by Western blot analysis; format: functional, cell-based; settings: dose 2-8 µM
[16] = system: DU-145; assay: Antiproliferative activity against human DU-145 cells assessed as increase in p27 expression level at 2 to 8 uM incubated for 24 hrs by Western blot analysis; format: functional, cell-based; settings: dose 2-8 µM
[17] = system: CWR22R; assay: Antiproliferative activity against human 22Rv1 cells assessed as reduction in c-Myc expression level at 2 to 8 uM incubated for 24 hrs by Western blot analysis; format: functional, cell-based; settings: dose 2-8 µM
[18] = system: DU-145; assay: Induction of apoptosis in human DU-145 cells assessed as increase in p53 level at 2 to 8 uM incubated for 24 hrs by Western blot analysis; format: functional, cell-based; settings: dose 2-8 µM
[19] = Thermodynamic water solubility of compound by HPLC anlaysis; format: physicochemical; settings: read-out: Therm_solubility
[20] = Acute toxicity in ICR mouse assessed as change in liver weight at 1000 to 10000 mg/kg,po and measured after 14 days; format: organism-based; settings: in vivo, 336 h, dose 1000-10000 mg/kg, time 14 day
[21] = Acute toxicity in ICR mouse assessed as change in kidney weight at 1000 to 10000 mg/kg,po and measured after 14 days; format: organism-based; settings: in vivo, 336 h, dose 1000-10000 mg/kg, time 14 day
[22] = Acute toxicity in ICR mouse assessed as appearance of lesions in liver at 5000 to 10000 mg/kg,po and measured after 14 days by H and E staining based microscopic analysis; format: organism-based; settings: in vivo, 336 h, dose 5000-10000 mg/kg, time 14 day
[23] = Acute toxicity in ICR mouse assessed as appearance of lesions in kidney at 5000 to 10000 mg/kg,po and measured after 14 days by H and E staining based microscopic analysis; format: organism-based; settings: in vivo, 336 h, dose 5000-10000 mg/kg, time 14 day
[24] = system: DU-145; assay: Antitumor activity against human DU-145 xenografted in BALB/c nude mouse assessed as tumor growth inhibition at 100 mg/kg,po qd for 21 days; format: functional, organism-based; settings: time 21.0 day
[25] = system: DU-145; assay: Antitumor activity against human DU-145 xenografted in BALB/c nude mouse assessed as tumor growth inhibition at 200 mg/kg,po administrated once daily for 21 days; format: functional, organism-based; settings: time 21.0 day
[26] = Toxicity in BALB/c nude mouse xenografted with human DU-145 assessed as body weight change at 100 to 200 mg/kg,po qd administrated once daily for 21 days; format: organism-based; settings: in vivo, 504 h, dose 100-200 mg/kg, time 21 day
[27] = system: DU-145; assay: Antitumor activity against human DU-145 xenografted in BALB/c nude mouse as upregulation of E-cadherin level in tumor at 100 to 200 mg/kg,po administrated once daily for 21 days by Western blot analysis; format: functional, organism-based; settings: dose 100-200 mg/kg, time 21.0 day
[28] = system: DU-145; assay: Antitumor activity against human DU-145 xenografted in BALB/c nude mouse as upregulation of cleaved PARP level in tumor at 100 to 200 mg/kg,po administrated once daily for 21 days by Western blot analysis; format: functional, organism-based; settings: dose 100-200 mg/kg, time 21.0 day

With `Cl.O=C(c1ccc(Nc2ncc(F)c(-c3ccc4scnc4c3)n2)nc1)N1CCNCC1` the Activity [1] was “Active”, the Activity [2] was “Active” and the Activity [3] was “Active”. For the same molecule, the Activity [4] was 61.07%, the Activity [5] was 28.05% and the Activity [6] was 60.51%. It also gave an Activity [7] of 16.48%, an Activity [8] of 13.85% and an Activity [9] of 19.42%. The Activity [10] was 7.86%, the Activity [11] was 24.04% and the Activity [12] was “Active”. The inhibition [13] was “Active”, the inhibition [14] was “Active” and the Activity [15] was “Active”. For the same molecule, the Activity [16] was “Active”, the Activity [17] was “Active” and the Activity [18] was “Active”. For the same molecule, the solubility thermodynamic [19] was 29.5 mg/mL, the Activity [20] was “Non-Toxic” and the Activity [21] was “Non-Toxic”. For the same molecule, the Activity [22] was “Non-Toxic”, the Activity [23] was “Non-Toxic” and the Activity [24] was “Active”. The Activity [25] was “Active”, the Activity [26] was “Non-Toxic” and the Activity [27] was “Active”. The Activity [28] was “Active”.
